Data published in patent US8497299B2, “Compositions including quinonoid derivatives of cannabinoids for therapeutic use” (Yissum Research Development Company of The Hebrew …, priority 2004, dated 2013).
Several values for one entry are separate records, joined by “and”; a condition that tells them apart may be missing. Identical values can stand only once.

Columns and labels:
HT-29 (colon cancer) = assay: MTT cell proliferation test, HT-29 cells; format: cell-based, human
Protocol: (§1) Raji and Jurkat cells were suspended in RPMI 1640 medium, supplemented with 20% heat-inactivated fetal calf serum (H-I FCS), 2 mM L-glutamine, 100 U/mL penicillin, and 0.01 mg/mL streptomycin at 37° C. in a 5% CO2 humidified atmosphere. Other cell lines were suspended in RPMI 1640 medium, supplemented with 10% H-I FCS, 2 mM L-glutamine, 100 U/mL penicillin, and 0.01 mg/mL streptomycin at 37° C. in a 5% CO2 humidified atmosphere.
(§2) Aliquots (200 μL) of suspensions of cancer cells were dispensed into wells of 96-well tissue culture plates at densities of 0.02×10^6 cells/well. Various concentrations of cannabinoic quinones were introduced into the wells, and their efficacy was tested three days after initiation of the cultures, using the 3-(4,5-dimethylthiazol-2-yl)-2,5-diphenyltetrazolium bromide (MTT) assay. The principle of this assay is that cells which survive following exposure to various compounds can reduce MTT to a dark-colored formazan, while dead cells are incapable of doing so. The assay was performed as described previously [Carmichael, J., et al. (1987) Cancer Res. 47, 936-42; Rubinstein, L. V. et al. (1990) J Natl Cancer Inst. 82, 1113-8; Rubnov, S. et al. (2001) J Nat Prod. 64, 993-6]. In each MTT assay every concentration of the cytotoxic substance was tested in five replicates in microplate wells. Assays with every cell line were carried out in two to three repeated experiments. The inhibitory effect of various compounds was calculated as percentage inhibition in comparison with the values obtained in untreated wells to which vehicle (ethanol 0.5%) was added.
(§3) The ability of cannabinoic quinones to inhibit cancer growth in vitro was verified on the following human cancer cell lines: Raji (Burkitt's lymphoma), Jurkat (human T-cell lymphoma), SNB-19 (glioblastoma), MCF-7 (breast cancer), DU-145 (prostate cancer), NCI-H-226 (lung cancer), and HT-29 (colon cancer) (see FIG. 5A-5E).

[1] = test system: human cancer cell lines (Raji, Jurkat, SNB-19, MCF-7, DU-145, NCI-H-226, HT-29); assay: MTT cell proliferation test, all cell lines tested; format: cell-based; conditions: for growth inhibition of human cancer cell lines in vitro, in words: MTT; for concentration at which all cell lines tested were inhibited: all cell lines / cell types tested
Protocol: as §2, with “The assay was performed as described previously [Carmichael, J., et al. (1987) Cancer Res. 47, 936-42; Rubinstein, L. V. et al. (1990) J Natl Cancer Inst. 82, 1113-8; Rubnov, S. et al. (2001) J Nat Prod. 64, 993-6].” left out

[2] = test system: Raji (Burkitt's lymphoma); assay: MTT cell proliferation test, Raji cells; format: cell-based, human
Protocol: as §2, with “The assay was performed as described previously [Carmichael, J., et al. (1987) Cancer Res. 47, 936-42; Rubinstein, L. V. et al. (1990) J Natl Cancer Inst. 82, 1113-8; Rubnov, S. et al. (2001) J Nat Prod. 64, 993-6].” left out

[3] = Tolerability in treated nude mice (weight loss, adverse effects); format: in vivo; conditions: 5 mg/kg
Protocol: (§4) A series of experiments were carried out to determine the capacity of HU-331 to inhibit the growth of human tumor cells in vivo. Nude mice received a subcutaneous (s.c.) injection of HT-29 human colon cancer cells. At various time intervals after the administration of the tumor cells the mice received i.p. or s.c. injections of HU-331 (2) at a dose of 5 mg/kg 3 times per week. This concentration paralleled the concentration of 5 μg/ml used in the in vitro experiments, which killed about 50% of HT-29 cancer cells.

MCF-7 (breast cancer) = assay: MTT cell proliferation test, MCF-7 cells; format: cell-based, human
Protocol: as §1, §2, §3

HT-29 colon cancer = assay: Growth of HT-29 colon cancer grafted s.c. in nude mice; format: in vivo
Protocol: Tumors were grafted into nude mice by s.c. flank inoculation of 0.2×10^6 HT-29 cells in RPMI 1640 medium without FCS. The animals were assigned randomly to various groups and injected via intraperitoneal (i.p.), intratumor or subcutaneous (s.c.) on day 2 or 14 after cells injection with vehicle (1:1:18 v/v ethanol:Emulphor®:PBS) or 5 mg/kg of HU-331. Tumors were measured with external caliper, and their area was calculated by multiplying the length by the width of the tumor.
as §4
Further, ten nude mice received a s.c. injection of HT-29 and were divided in two groups. Starting from day 2 after tumor injection, one group of mice received the i.p. injections of HU-331.
In another in vivo experiment, two groups of nude mice received an injection of HT-29 cancer cells subcutaneously in their backs. HU-331 (2) was injected subcutaneously at a concentration of 5 μg/ml (FIG. 6). In one group (Group 1), HU-331 was administrated intra-tumorally starting 14 days after the injection of tumor cells. In another group (Group 2), HU-331 was injected subcutaneously in the region where cancer cells had been injected, starting 2 days after the injection of tumor cells. […] In the mice that received HU-331 intra-tumorally starting 14 days after tumor implantation (Group 1), the anti-tumor effect of HU-331 took a longer time to be manifested.

[4] = test system: Jurkat (human T-cell lymphoma); assay: MTT cell proliferation test, Jurkat cells; format: cell-based
Protocol: as §2, with “The assay was performed as described previously [Carmichael, J., et al. (1987) Cancer Res. 47, 936-42; Rubinstein, L. V. et al. (1990) J Natl Cancer Inst. 82, 1113-8; Rubnov, S. et al. (2001) J Nat Prod. 64, 993-6].” left out

DU-145 (prostate cancer) = assay: MTT cell proliferation test, DU-145 cells; format: cell-based, human; conditions: for susceptibility of the cell line to inhibition, in words: DU-145, relative to the other cell lines
Protocol: as §2, with “The assay was performed as described previously [Carmichael, J., et al. (1987) Cancer Res. 47, 936-42; Rubinstein, L. V. et al. (1990) J Natl Cancer Inst. 82, 1113-8; Rubnov, S. et al. (2001) J Nat Prod. 64, 993-6].” left out

SNB-19 (glioblastoma) = assay: MTT cell proliferation test, SNB-19 cells; format: cell-based, human; conditions: for susceptibility of the cell line to inhibition, in words: SNB-19, relative to the other cell lines
Protocol: as §2, with “The assay was performed as described previously [Carmichael, J., et al. (1987) Cancer Res. 47, 936-42; Rubinstein, L. V. et al. (1990) J Natl Cancer Inst. 82, 1113-8; Rubnov, S. et al. (2001) J Nat Prod. 64, 993-6].” left out

C=C(C)[C@@H]1CCC(C)=C[C@H]1C1=C(O)C(=O)C(CCCCC)=CC1=O [HU-331, 3S,4R-p-benzoquinone-3-hydroxy-2-p-mentha-(1,8)-dien-3-yl-5-pentyl]
susceptibility of the cell line to inhibition, in words (HT-29 (colon cancer); HT-29, relative to the other cell lines): most susceptible
concentration required for 50% inhibition of growth (HT-29 (colon cancer); HT-29 colon cancer, MTT, three days): 3.125 µg/mL
inhibition of HT-29 cell growth (HT-29 (colon cancer); at 3.125 μg/ml): about 50%
HT-29 cancer cells killed (HT-29 (colon cancer); at 5 μg/ml in vitro): about 50%
growth inhibition of human cancer cell lines in vitro, in words [1]: exerted an inhibitory effect on the in vitro growth of all seven human cancer cell lines tested
concentration giving 50% inhibition of growth ([2]; Raji lymphoma, MTT, three days): 0.2 µg/mL
inhibition of Raji cell growth ([2]; at 0.2 μg/ml): about 50%
inhibition of Raji cell growth ([2]; at 1.56 μg/ml): over 80%
weight loss and observable adverse effects [3]: did not cause either weight loss or any observable adverse effects
susceptibility of the cell line to inhibition, in words (MCF-7 (breast cancer); MCF-7, relative to the other cell lines): most susceptible
concentration required for 50% inhibition of growth (MCF-7 (breast cancer); MCF-7 mammary cancer, MTT, three days): 3.125 µg/mL
inhibition of MCF-7 cell growth (MCF-7 (breast cancer); at 3.125 μg/ml): about 50%
tumor size versus controls (HT-29 colon cancer; i.p. 5 mg/kg 3 times per week from day 2, at 35 days after cancer cell injection, p<0.0029): half the size of the tumors in controls
tumor size versus vehicle-treated control mice (HT-29 colon cancer; i.p. 5 mg/kg 3 times per week from day 2, starting at 25 days after cancer cells injection, p<0.05): significantly smaller
tumor size versus controls (HT-29 colon cancer; intra-tumoral from day 14 (Group 1), from day 31 onwards, not significant until day 45): smaller than in controls
tumor size versus control mice (HT-29 colon cancer; intra-tumoral from day 14 (Group 1), starting at day 45 after cell injection, p<0.05): significantly smaller
tumor size versus control mice (HT-29 colon cancer; s.c. in the region of the graft from day 2 (Group 2), at days 17-25 and until day 59, p<0.05): significantly smaller
concentration giving 50% inhibition of growth ([4]; Jurkat lymphoma, MTT, three days): 0.2 µg/mL
inhibition of Jurkat cell growth ([4]; at 0.2 μg/ml): about 50%
inhibition of Jurkat cell growth ([4]; at 1.56 μg/ml): over 80%

CCCCCC1=CC(=O)C([C@@H]2CC(C)CC[C@H]2C(C)C)=C(O)C1=O (stereo partly drawn) [HU-396, 3S,4R-p-benzoquinone-3-hydroxy-2-[p-menthan-3-yl]-5-pentyl]
inhibition of Jurkat cell proliferation, comparison in words ([4]; MTT): less effectively than HU-395 and HU-331
Jurkat cancer cells killed ([4]; at 0.39 μg/ml): about 40%
Jurkat cancer cells killed ([4]; at 0.78 μg/ml): about 60%

CCCCCC1=CC(=O)C2=C(OC(C)(C)[C@@H]3CC=C(C)C[C@@H]23)C1=O [HU-336, 6aR,10aR-1-H-dibenzo[b,d]pyran-1,4-(6H)-dione-6aβ,7,10,10aα-tetrahydro-6,6,9-trimethyl-3-pentyl]
growth inhibition of human cancer cell lines in vitro, in words [1]: weakest capacity to inhibit the growth of human cancer cell lines in vitro
concentration at which all cell lines tested were inhibited [1]: over 12.5 μg/ml
inhibition of growth of all the cells tested ([1]; at 12.5 μg/ml or higher): ≥ 50%
susceptibility of the cell line to inhibition, in words (DU-145 (prostate cancer)): most susceptible
susceptibility of the cell line to inhibition, in words (SNB-19 (glioblastoma)): most susceptible
concentration at which growth was inhibited (SNB-19 (glioblastoma); SNB-19 cells, inhibited only at this concentration): 100 µg/mL

CCCCCC1=CC(=O)C([C@@H]2C=C(C)CC[C@H]2C(C)C)=C(O)C1=O [HU-395, 3S,4R-p-benzoquinone-3-hydroxy-2-[p-mentha-1-en-3-yl]-5-pentyl]
inhibition at 0.2 µg/mL ([4]; Homo sapiens, Jurkat, at 0.2 μg/ml, read-out: inhibition of Jurkat cell growth): ~60%
inhibition of Jurkat cell proliferation, comparison in words ([4]; MTT): at least to the same extent as HU-331

CCCCCC1=CC(=O)C2=C(OC(C)(C)c3ccc(C)cc32)C1=O [HU-345, 1-H-dibenzo[b,d]pyran-1,4(6H)-dione-6,6,9-trimethyl-3-pentyl]
concentration at which all cell lines tested were inhibited [1]: 25.0 µg/mL and 12.5 to 25.0 µg/mL
inhibition at 6.25 µg/mL ([2]; Homo sapiens, Raji, read-out: inhibition of Raji cell growth): > 50%
inhibition of Raji cell growth, comparison in words ([2]; MTT): more effectively than that of the other cell lines tested
susceptibility of the cell line to inhibition, in words (DU-145 (prostate cancer)): most susceptible
concentration at which growth was inhibited (DU-145 (prostate cancer); DU-145 prostate cancer cells): 12.5 µg/mL
susceptibility of the cell line to inhibition, in words (SNB-19 (glioblastoma)): most susceptible
concentration at which growth was inhibited ([4]; Jurkat cells): 12.5 µg/mL and 12.5 to 25.0 µg/mL
